In US8753666B2, “Punctal plugs and methods of delivering therapeutic agents” (Alcon Research, Ltd., priority 2007, dated 2014):

Experiment: Release of AL-6598 from silicone dies of three sizes in PBS at 37° C.
Assay type: physicochemical
Details: silicone die containing 10% AL-6598, 10x10x1 mm, 10x5x1 mm and 5x5x1 mm, FIG. 8
Procedure: To study the effect of surface area on the release of prostaglandin from a silicone matrix, prostaglandin release from silicone dies of three different sizes was measured. The largest silicone die measured 10 mm×10 mm×1 mm. A ½ size device (10 mm×5 mm×1 mm) and a ¼ size device (5 mm×5 mm×1 mm) were also used in this study. Each silicone die contained 10% AL-6598, which is a DP class prostaglandin analogue. The silicone die were placed in phosphate buffered saline (PBS) at 37° C. and the amount of AL-6598 released was measured.

In the case of CC(C)OC(=O)COC/C=C\C[C@@H]1[C@@H](CC[C@@H](O)C2CCCCC2)[C@H](O)C[C@H]1Cl [AL-6598], the “release of AL-6598 from silicone die (effect of surface area)” value is reported as “dependent on the size of the silicone die with the larger surface area resulting in the more rapid drug release”.
